The values that follow are results of earlier work, collected in patent US20050084507A1, “Liquid preparations and surfactant/solvent systems” (priority 1999, published 2005).

Values after ≈ are worked out from the molar mass of the structure shown.

As for `CCOC1Oc2ccc(OS(C)(=O)=O)cc2C1(C)C` (stereo not shown) [ethofumesate], the solubility in water is 50 µg/mL (≈ 175 µM).
